The text below walks through data of US20060205749A1, “Remedy and/or preventive for lung diseases” (priority 2003, published 2006).

Structures are written as SMILES.

In experiment [1] the test system is neutrophils in BALF, mainstream of cigarette smoke induced pulmonary injury model. Description: Inhibitory effect on increase of neutrophils in mainstream of cigarette smoke induced pulmonary injury model. In kind it is in vivo. The note with it: male CD rats, 0.3 mg/body orally 10 to 12 hours before exposure to mainstream of cigarette smoke, BAL after the exposure for 6 hours. As to the method: Compound (I) was suspended to the concentration of 0.6 mg/mL in a physiological saline containing 25% Alevaire (registered trademark, Azwell, Osaka), which is an inhalant for respiratory organs, (administration solvent). The suspension was used for the test. The suspension is referred to as a “suspension for the administration of Compound (I)”.
First, 0.5 mL of the administration solvent or the suspension for the administration of Compound (I) per kilogram of body weight was administered orally to male CD rats aged 6 to 7 weeks (Charles River Japan, Kanagawa). After 10 to 12 hours, the rats were systemically exposed to mainstream of cigarette smoke (Hi-Lite, Japan Tobacco Inc., Tokyo) using a smoking exposure instrument (M•I•P•S, Osaka). The exposure to the mainstream of cigarette smoke for 5 minutes and then exposure to air for 10 minutes were successively performed by repeating them eight times.
A group subjected to the administration of the administration solvent and exposure to air instead of mainstream of cigarette smoke is referred to as a “solvent administration group”. […]
After the exposure for 6 hours, BALs were performed with Hanks' solution [Hanks' Balanced Salt Solution (Invitrogen Corporation, CA, USA)] […] All of the BALFs were recovered and subjected to treatment as in Test example 1, and then the numbers of neutrophils were measured. […]

The test system of experiment [2] is neutrophils in BALF, lipopolysaccharide (LPS)-induced pulmonary injury model. Description: Inhibitory effect on increase of neutrophils in LPS-induced pulmonary injury model. Type of experiment: in vivo. The conditions noted are these: male BALB/c mice, 0.1 mg/body intratracheally together with LPS, BAL 6 hours after administration. As to the method:
Physiological saline containing 25% Alevaire (registered trademark, Azwell Inc., Osaka) which is an inhalant for respiratory organs (administration solvent), or administration solvent dissolving 300 ng/mL of LPS (manufactured by Sigma-Aldrich, Mo., USA) were administered intratracheally to 9-week-old male BALB/c mice (Charles River Japan, Kanagawa) in an amount of 0.1 mL respectively. Then bronchoalveolar lavages (BALS) were performed 6 hours after the intratracheal administration (These administration groups were referred to as a “solvent administration group” and an “LPS administration group”, respectively). […]
The recovered bronchoalveolar lavage fluids (BALFS) were centrifuged at 570×g for 10 minutes at 4° C., followed by removal of supernatants to obtain pellets. […] The total numbers of leukocytes were counted with an automatic blood cell counter Celltac α (Nihon Kohden Corporation, Tokyo). […] Then, the numbers of cells were counted under a microscope (400×).
The number of cells was counted up to 300 in total while macrophages, neutrophils and lymphocytes were distinguished. Then, the ratio of each cell was calculated (equation 1). The number of neutrophils was calculated from the ratio of neutrophils and the total number of leukocytes (equation 2). The inhibition ratio of the increase in number of neutrophils by the administration of Compound (I) was calculated by equation 3. […]

Take `COc1ccc(C(=O)Cc2c(Cl)cncc2Cl)c2c1OC1(CCCC1)O2` [Compound (I), 7-[2-(3,5-dichloro-4-pyridyl)-1-oxoethyl]-4-methoxy-spiro[1,3-benzodioxol-2,1′-cyclopentane]]: in experiment [1], the “Inhibition ratio of increase in number of neutrophil” value is on record as 81%. Moreover, the Number of neutrophils was 0.34 ± 0.13 ×10^5 cells/BALF in experiment [1] (mean ± standard error) and 0.72 ± 0.22 ×10^5 cells/BALF in experiment [2] (mean ± standard error). For the same compound, the “Inhibition ratio of increase in number of neutrophils” value in experiment [2] (equation 3) turned out to be 47%.
